≈ marks a conversion by molar mass, not a printed value. Where two headings read alike, the source gives them in different places.
Assays:
[1] = tested on: PC3 (human prostate carcinoma) cells; test: XTT cytotoxicity assay, PC3 cells; format: cell-based; settings: for IC50: XTT, 48 h exposure, read-out: PC3 [IC50 (μM)]
Experimental: (§1) Cytotoxicity of selected compounds of the invention against different mammalian cell lines was assessed as follows.
(§2) Human tumor cell lines KB/HeLa (ATCC CCL17, human cervix carcinoma), PC3 (ATCC CRL1435, human prostate carcinoma) and RKOp21 (human colon adenocarcinoma; Schmidt et al., Oncogene 2000, 19: 2423-2429) cells were used in an automated XTT screening assay for the assessment of cytotoxicity.
(§3) The XTT assay quantifies cellular metabolic activity which correlates with cell viability and cell number. Test compounds (selected compounds of the invention and known substances as controls) are dissolved in culture medium at 600 μM and added to the tumor cells in 10 different concentrations in a semi-logarithmic fashion starting from 100 μM as highest concentration.
(§4) In a second set of experiments employing PC3, RKOp21 and SKOV-3 (ATCC HTB-77, human ovary adenocarcinoma) cells, test and reference compounds were dissolved in 70% Ethanol/30% H2O in a stock concentration of 10 mM and diluted in cell culture medium to yield either 31.6 μM (PC3 and RKOp21) or 100 μM (SKOV-3) final concentration.
(§5) 48 h later cellular metabolic activity of cells treated with test compounds is quantified by measurement of the absorbance at 490 nm (conversion of XTT dye) in comparison to untreated control cells (100% viability).
(§6) KB/HeLa and PC3 cells were cultivated in RPMI 1640 medium (Gibco, Cat. No. 42401-018) supplemented with 10% heat inactivated fetal calf serum (FCS, Biochrom AG, Cat. No. S0115), 2 mM L-glutamine (Gibco, Cat. No. 25030-24) and 2% Penicillin-Streptomycin (PenStrep, Gibco, Cat. No. 15140-122). RKOp21 cells were grown in DMEM+GlutaMAXTM-I medium (Gibco, Cat. No. 61965-026) supplemented with 10% heat inactivated fetal calf serum (FCS, Biochrom AG, Cat. No. S0115), 2 mM L-glutamine (Gibco, Cat. No. 25030-24), 2% Penicillin-Streptomycin (PenStrep, Gibco, Cat. No. 15140-122) and 1% 1M HEPES (Gibco, Cat. No. 15630-056). All cells were cultured at 37° C. in 5% CO2 humidified air.
(§7) On the first day of the experiment cells were harvested from exponential phase cultures by trypsination, counted and plated into 96 well flat-bottom micro titer plates depending on the cell line as listed below:
(§8) After a 24 h recovery to allow the cells to resume exponential growth, the test compounds were diluted immediately prior to use and transferred in 25 μl volume to the wells.
(§9) Following 2 days of continuous drug exposure 50 μl of freshly prepared XTT-PMS solution {2% 0.386 mg/ml PMS (N-Methyl Dibenzopyrazine Methylsulphate; Sigma, Cat. No. P9625) in PBS+98% 1 mg/ml XTT (Sodium 2,3-bis(2-methoxy-4-nitro-5-sulfophenyl)-5-[(phenylamino)carbonyl]-2H-Tetrazolium; Serva, Cat. No. 38450) in RPMI 1640 medium without phenol red} was added to the wells. To measure the proportion of living cells, the cells were incubated for 3 h with XTT-PMS reagent at 37° C., 5% CO2, humidified atmosphere allowing to form the formazan salt. The amount of soluble formazan salt produced by cellular reduction of XTT is quantified by measuring the absorbance at 490 nm using the Biomek® 2000 ELISA plate reader. %-inhibition (cytotoxicity) of each test compound was calculated in relation to untreated control cells. Inhibition curves were generated and IC50 values calculated by using GraphPad Prism.

[2] = tested on: Moraxella catarrhalis DMS 11994 (ATCC 43617); test: Anti-bacterial bouillon microdilution assay (MIC), bacterium D; format: cell-based; settings: ATCC43617, 24 h
Experimental: Selected compounds of the invention were tested in a bouillon microdilution assay method according to the DIN 58940 (www.din.de) guidelines for determination of susceptibility of bacterial strains with regard to cell growth inhibition. The assay method quantifies bacterial cell growth which corresponds to the turbidity of the liquid culture medium by photometric measurement carried out at 595 nm.
The method of MIC determination was performed according to DIN 58940-5. The volumina were adapted according to the microdilution method as described in DIN 58940-7 guideline.
Dependent on water solubility, compounds of the invention were dissolved either in water or ethanol in a concentration of 10 mg/ml. Subsequently, the stock was further diluted in water to a concentration of 512 μg/ml. The following serial dilutions (factor 2) were performed in water resulting in the following […] testing concentrations: 256 μg/ml, 128 μg/ml, 64 μg/ml, 32 μg/ml, 16 μg/ml, 8 μg/ml, 4 μg/ml, 2 μg/ml, 1 μg/ml, 0.5 μg/ml, 0.25 μg/ml and 0.125 μg/ml. Diluted compounds of the invention were transferred in 100 μl volume to the microtiter plate wells.
Pre-cultures of bacteria were grown in appropriate liquid media (refer to ATCC webpage, www.atcc.org) and afterwards were inoculated in corresponding liquid medium. 100 μl of the inoculums [adjusted to an amount of app. 1×10^6 microorganisms per ml (range of 10^5-10^8 microorganisms per ml)] were added to each of the testing compound concentrations and cultivated under the appropriate conditions.
Before and after incubation, bacterial growth was determined by photometric analysis against a positive control containing growing bacteria without compound and a sterile/negative control containing only the medium.

[3] = tested on: RKOp21 (human colon adenocarcinoma) cells; test: XTT cytotoxicity assay, RKOp21 cells; format: cell-based; settings: for IC50: XTT, 48 h exposure, read-out: RKOp21 [IC50 (μM)]
Experimental: as §1, §2, §3, §4, §5, §6, §7, §8, §9

[4] = tested on: KB/HeLa (human cervix carcinoma) cells; test: XTT cytotoxicity assay, KB/HeLa cells; format: cell-based; settings: XTT, 48 h exposure, read-out: KB/HELA [IC50 (μM)]
Experimental: as §1, §2, §3, §5, §6, §7, §8, §9

[5] = tested on: PC3, RKOp21 and SKOV-3 cell lines; test: XTT cytotoxicity assay, mean over all three cell lines; format: cell-based, human; settings: mean value over all three cell lines
Experimental: Following 2 days of continuous drug exposure 50 μl of freshly prepared XTT-PMS solution {2% 0.386 mg/ml PMS (N-Methyl Dibenzopyrazine Methylsulphate; Sigma, Cat. No. […] Serva, Cat. No. 38450) in RPMI 1640 medium without phenol red} was added to the wells. To measure the proportion of living cells, the cells were incubated for 3 h with XTT-PMS reagent at 37° C., 5% CO2, humidified atmosphere allowing to form the formazan salt. […] Inhibition curves were generated and IC50 values calculated by using GraphPad Prism. In the following table 7 cytotoxicity results (% inhibition of cell growth) obtained in the second set of experiments for selected compounds of the invention are presented in comparison to examples of the prior art (perifosine, miltefosine). The results presented are individual values for the respective cell line as well as the mean value over all three cell lines tested.

[6] = tested on: SKOV-3 (human ovary adenocarcinoma) cells; test: XTT cytotoxicity assay, SKOV-3 cells; format: cell-based; settings: for SKOV-3 % INH [100 μM]: second set of experiments
Experimental: On the first day of the experiment cells were harvested from exponential phase cultures by trypsination, counted and plated into 96 well flat-bottom micro titer plates depending on the cell line as listed below: [table] After a 24 h recovery to allow the cells to resume exponential growth, the test compounds were diluted immediately prior to use and transferred in 25 μl volume to the wells. Following 2 days of continuous drug exposure 50 μl of freshly prepared XTT-PMS solution {2% 0.386 mg/ml PMS (N-Methyl Dibenzopyrazine Methylsulphate; Sigma, Cat. No. […] Serva, Cat. No. 38450) in RPMI 1640 medium without phenol red} was added to the wells. To measure the proportion of living cells, the cells were incubated for 3 h with XTT-PMS reagent at 37° C., 5% CO2, humidified atmosphere allowing to form the formazan salt. […] Inhibition curves were generated and IC50 values calculated by using GraphPad Prism.

[7] = 31.6 μM, second set of experiments

MIC [2] [µg/mL] | SMILES | IC50 ([1]; Homo sapiens, PC-3) [µM] | IC50 ([3]; Homo sapiens) [µM] | IC50 ([4]; Homo sapiens, HeLa) [µM] | Mean % INH [5] [%] | inhibition at 31.6 µM ([1]; Homo sapiens, PC-3, 31.6 μM, second set of experiments, read-out: PC3 % INH [31.6 μM]) [%] | inhibition at 100 µM ([6]; Homo sapiens, SK-OV-3, second set of experiments, read-out: SKOV-3 % INH [100 μM]) [%] | inhibition at 31.6 µM ([3]; Homo sapiens, 31.6 μM, second set of experiments, read-out: RKOp21 % INH [31.6 μM]) [%] | PC3 % INH [31.6 μM] [1, 7] [%] | IC50 [1] [µM] | SKOV-3 % INH [100 μM] [6] [%] | RKOp21 % INH [31.6 μM] [3, 7] [%] | IC50 [3] [µM] | IC50 [4] [µM]
8 (≈ 18 µM) | CCCCCCCCCCCCCCCCCCOP(=O)(O)OCCn1ccnc1 [Compound 67] | > 100 | > 100 | > 100 | – | – | – | – | – | – | – | – | – | –
8 (≈ 15.4 µM) | CCCCCCCCCCCCCCCCOP(=O)([O-])OCC[N+]1(C)CCCC(C(=O)OCC)C1 (centres unmarked) [Compound 260] | – | – | – | 47.3 | 45.2 | 56.1 | 40.5 | – | – | – | – | – | –
– | CCCCCCCCC=CCCCCCCCCOP(=O)(O)OCCN1CCCCC1 [Compound 19] | – | – | – | 32.2 | – | – | – | 16.2 | > 100 | 26.9 | 53.4 | > 100 | > 100
– | CCCCCCCCCCOCCOCCOP(=O)([O-])OCC[N+]1(C)CCCCC1 [Compound 20] | – | – | – | −1.7 | – | – | – | 13.4 | > 100 | −6.1 | −12.4 | > 100 | > 100

Source: patent US20070167408A1, “NOVEL ALKYL PHOSPHOLIPID DERIVATIVES WITH REDUCED CYTOTOXICITY AND USES THEREOF” (ZENTARIS GmbH, priority 2005, published 2007)
